Reference: ChEMBL document CHEMBL1136459, “New antibacterial tetrahydro-4(2H)-thiopyran and thiomorpholine S-oxide and S,S-dioxide phenyloxazolidinones” (Bioorg Med Chem Lett, 2003)
In brackets after ≈: the same amount, converted by molar mass.

Columns and labels:
Staphylococcus aureus [1] = assay: In vitro antibacterial activity against Staphylococcus aureus strains UC12673, UC9213, ATCC 29213, and UC9271 (SA); range is 4-16; format: functional
Haemophilus influenzae [2] = assay: In vitro antibacterial activity against Haemophilia influenzae strains 30063 and ATCC 31517 (HI); range is 16-32; format: functional
Enterococcus faecium = assay: In vitro antibacterial activity against vancomycin-resistant Enterococcus faecium UC12712 (VRE).
Staphylococcus aureus [3] = assay: In vitro antibacterial activity against Linezolid resistance Staphylococcus aureus ATCC 29213 (LRSA)
Moraxella catarrhalis [4] = assay: In vitro antibacterial activity against Moraxella catarrhalis strains 30607 and 30603 (MC).; format: functional
Streptococcus pneumoniae [5] = assay: In vitro antibacterial activity against Streptococcus pneumoniae strains ATCC6305 and 31573 (SPN).
[6] = system: Staphylococcus epidermidis; assay: In vitro antibacterial activity against Staphylococcus epidermidis strains UC12084, 30031, and CDC-CNS90 (SE); range is 0.5-1; format: functional
Haemophilus influenzae [7] = assay: In vitro antibacterial activity against Haemophilia influenzae strains ATCC 30063 and ATCC 31517; format: functional
Staphylococcus aureus [8] = assay: In vitro antibacterial activity against linezolid-resistant Staphylococcus aureus ATCC 29213 (LRSA).; format: functional
Streptococcus pneumoniae [9] = assay: In vitro antibacterial activity against Streptococcus pneumoniae strains ATCC 6305 and 31573 (SPN); range is 0.5-1
Staphylococcus aureus [10] = assay: In vitro antibacterial activity against Staphylococcus aureus strains UC12673, UC9213, ATCC 29213, and UC9271 (SA); range is 1-2; format: functional
Haemophilus influenzae [11] = assay: In vitro antibacterial activity against Haemophilia influenzae strains 30063 and ATCC 31517 (HI); range is 4-16; format: functional
Staphylococcus aureus [12] = assay: In vitro antibacterial activity against Staphylococcus aureus strains UC12673, UC9213, ATCC 29213, and UC9271 (SA); format: functional
[13] = system: Staphylococcus epidermidis; assay: In vitro antibacterial activity against Staphylococcus epidermidis strains UC12084, 30031, and CDC-CNS90 (SE); range is 0.13-2; format: functional
Streptococcus pneumoniae [14] = assay: In vitro antibacterial activity against Streptococcus pneumoniae strains ATCC 6305 and 31573 (SPN); range is 1-2
Moraxella catarrhalis [15] = assay: In vitro antibacterial activity against Moraxella catarrhalis strains 30607 and 30603 (MC); range is 8-16; format: functional
[16] = system: Staphylococcus epidermidis; assay: In vitro antibacterial activity against Staphylococcus epidermidis strains UC12084, 30031, and CDC-CNS90 (SE); format: functional
Streptococcus pneumoniae [17] = assay: In vitro antibacterial activity against Streptococcus pneumoniae strains ATCC 6305 and 31573 (SPN); range is 32-64; format: functional
[18] = system: Staphylococcus epidermidis; assay: In vitro antibacterial activity against Staphylococcus epidermidis strains UC12084, 30031, and CDC-CNS90 (SE); range is 32->64; format: functional

Row | SMILES | MIC (Enterococcus faecium) | MIC (Moraxella catarrhalis [4]) | MIC (Haemophilus influenzae [7]) | MIC (Staphylococcus aureus [8]) | MIC (Staphylococcus aureus [12]) | other results
1 | O=C(NC[C@H]1CN(c2ccc(N3CCS(=O)(=O)CC3)c(F)c2)C(=O)O1)C1CC1 | 4 µg/mL (≈ 9.72 µM) | 4 µg/mL (≈ 9.72 µM) |  |  |  | MIC (Staphylococcus aureus [1]): 4 µg/mL (≈ 9.72 µM); MIC (Haemophilus influenzae [2]): 16 µg/mL (≈ 38.9 µM); MIC (Staphylococcus aureus [3]): 2 µg/mL (≈ 4.86 µM); MIC (Streptococcus pneumoniae [5]): 2 µg/mL (≈ 4.86 µM)
2 | CO/N=C/c1ccc(/C=C/C(=O)NC[C@H]2CN(c3ccc(N4CC[S+]([O-])CC4)c(F)c3)C(=O)O2)cc1 | 2 µg/mL (≈ 3.89 µM) | 4 µg/mL (≈ 7.77 µM) | > 64 µg/mL | 64 µg/mL (≈ 124 µM) |  | MIC [6]: 0.5 µg/mL (≈ 0.972 µM); MIC (Streptococcus pneumoniae [9]): 0.5 µg/mL (≈ 0.972 µM); MIC (Staphylococcus aureus [10]): 1 µg/mL (≈ 1.94 µM)
3 | NC(=O)NC[C@H]1CN(c2ccc(C3CCS(=O)(=O)CC3)c(F)c2)C(=O)O1 | 4 µg/mL (≈ 10.4 µM) |  |  | > 64 µg/mL | 16 µg/mL (≈ 41.5 µM) | MIC (Haemophilus influenzae [11]): > 4 µg/mL; MIC [13]: 0.13 µg/mL (≈ 0.337 µM); MIC (Streptococcus pneumoniae [14]): 1 µg/mL (≈ 2.59 µM); MIC (Moraxella catarrhalis [15]): > 8 µg/mL
4 | NCCC(O)C(=O)NC[C@H]1CN(c2ccc(C3CCS(=O)(=O)CC3)c(F)c2)C(=O)O1 (some centres not stated) |  | > 64 µg/mL | > 64 µg/mL | > 64 µg/mL | > 64 µg/mL | MIC [16]: > 64 µg/mL; MIC (Streptococcus pneumoniae [17]): 32 µg/mL (≈ 72.2 µM)
5 | CC(C)CCC(=O)NC[C@H]1CN(c2ccc(N3CC[S+]([O-])CC3)c(F)c2)C(=O)O1 | > 64 µg/mL | > 64 µg/mL | > 64 µg/mL | > 64 µg/mL | ≥ 64 µg/mL | MIC [18]: 32 µg/mL (≈ 75.2 µM)
